The test system of data set [1] is DMS 114. Kind of data set: in vitro small cell lung cancer cell growth inhibition (NCI screen). In kind it is cell-based, human. The note with it: for GI50: Homo sapiens, read-out: cytotoxicity log GI50 (converted).
Data set [2] concerns DMS 273. Described as above. The data set is classed as cell-based. The conditions noted are these: Homo sapiens, read-out: cytotoxicity log GI50 (converted).

The values that follow come from patent US5789431A, “Naphthoquinone antitumor compound and method” (The University of North Carolina at Chapel Hill, priority 1996, dated 1998).

As a reminder, the GI50 is the concentration at which growth is held to half of that of the control. As for `O=C(Cc1ccccc1F)NC1=C(Cl)C(=O)c2ccccc2C1=O` [Compound 2i, 2-(2-Fluorophenyl)acetamido-3-chloro-1,4-naphthoguinone], the GI50 in data set [1] is 0.174 µM. Consider `NC1=C(NC(=O)Cc2ccc(F)cc2)C(=O)c2ccccc2C1=O` [Compound 3c], for which the GI50 in data set [2] was 33.9 µM.

Take `O=C1c2ccccc2C(=O)c2[nH]c(Cc3ccccc3F)nc21` [Compound 4b]: the GI50 was 34.7 µM in data set [2] and 33.9 µM in data set [1]. `CCn1c(C)nc2c1C(=O)c1ccccc1C2=O` [Compound 5, 1-ethyl-2-methylnaphth-[2,3-d]imidazole-4,9-dione]: the GI50 in data set [2] is 1.66 µM; in data set [1], 0.275 µM. Further, in data set [1], the “cytotoxicity log GI50” value is on record as -6.56 M. In the case of `CCC(C)n1c(C)nc2c1C(=O)c1ccccc1C2=O` (centres unmarked) [Compound 6], the GI50 in data set [2] is 33.9 µM. Same read-out and setting: the figure for `Cc1nc2c(n1CC(C)C)C(=O)c1ccccc1C2=O` [Compound 7] is 26.9 µM; for `Cc1nc2c(n1C(C)(C)C)C(=O)c1ccccc1C2=O` [Compound 8] it is 52.5 µM. Same read-out and setting: with `CCCC(C)n1c(C)nc2c1C(=O)c1ccccc1C2=O` (centres unmarked) [Compound 9] the figure was 7.24 µM; with `CCC(CC)n1c(C)nc2c1C(=O)c1ccccc1C2=O` [Compound 10], 22.9 µM. For `Cc1nc2c(n1CCC(C)C)C(=O)c1ccccc1C2=O` [Compound 11], the GI50 in data set [2] was 11 µM.

Take `CCC(C)(C)n1c(C)nc2c1C(=O)c1ccccc1C2=O` [Compound 12]: the GI50 in data set [2] was 11.7 µM. On the same count and under the same terms, the figure for `CCC(C)Cn1c(C)nc2c1C(=O)c1ccccc1C2=O` (centres unmarked) [Compound 13] is 9.77 µM; for `Cc1nc2c(n1CCO)C(=O)c1ccccc1C2=O` [Compound 16] it is 20 µM.

Turning to `Cc1ccc(Cn2c(C)nc3c2C(=O)c2ccccc2C3=O)cc1` [Compound 17], in data set [2], the 50% growth inhibitory concentration (GI50) was 1.07 µM.

Consider `COc1ccc(Cn2c(C)nc3c2C(=O)c2ccccc2C3=O)cc1` [Compound 18], for which the GI50 in data set [2] is 3.31 µM. The same measure, in the same setting: the figure for `Cc1nc2c(n1Cc1ccc(F)cc1)C(=O)c1ccccc1C2=O` [Compound 19] is 6.46 µM; for `Cc1nc2c(n1Cc1ccc(Cl)cc1)C(=O)c1ccccc1C2=O` [Compound 20] it is 2.63 µM. Consider `CCC(C)NC1=C(NC(C)=O)C(=O)c2ccccc2C1=O` (centres unmarked) [Compound 30], for which the GI50 was 27.5 µM in data set [2] and 28.2 µM in data set [1]. As to `CC(=O)NC1=C(NCC(C)C)C(=O)c2ccccc2C1=O` [Compound 31], the results for the GI50 in data set [2] and in data set [1] were 14.5 µM and 14.8 µM, respectively. As to `CC(=O)NC1=C(NCCN(C)C)C(=O)c2ccccc2C1=O` [Compound 39], the GI50 in data set [2] was 11.7 µM. On the same count and under the same terms, with `CCn1c(Cc2ccc(F)cc2)nc2c1C(=O)c1ccccc1C2=O` [Compound 66] the figure was 9.77 µM.
